The values that follow come from patent US5245051A, “Antipsychotic chroman derivatives of benzodioxanmethylamine” (American Home Products Corporation, priority 1992, dated 1993).

The subject of one test is 5-HT1A receptor. The note with it: (-)-isomer versus dextrorotary isomer; cited from earlier work.
The target of the next test is T1, dopamine D2 receptor (Rattus norvegicus, UniProt P61169).
T1 construct: homogenized rat striatal brain tissue; from tissue; host or cells: rat striatal brain tissue homogenate
T1 sequence (P61169 whole entry): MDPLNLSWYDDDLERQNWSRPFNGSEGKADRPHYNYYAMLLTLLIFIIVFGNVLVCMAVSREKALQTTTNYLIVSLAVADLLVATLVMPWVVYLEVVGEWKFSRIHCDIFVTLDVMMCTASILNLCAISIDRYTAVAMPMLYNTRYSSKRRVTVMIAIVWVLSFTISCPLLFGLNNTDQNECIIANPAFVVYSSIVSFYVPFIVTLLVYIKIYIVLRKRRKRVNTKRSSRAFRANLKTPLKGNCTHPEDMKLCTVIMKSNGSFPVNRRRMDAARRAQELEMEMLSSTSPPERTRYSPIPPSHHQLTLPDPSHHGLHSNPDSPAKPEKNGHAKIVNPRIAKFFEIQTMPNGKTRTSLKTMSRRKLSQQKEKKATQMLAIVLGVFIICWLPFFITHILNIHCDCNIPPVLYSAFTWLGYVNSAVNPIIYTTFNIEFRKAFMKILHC
Kind of test: Affinity for dopamine D2 receptor (3H-quinpirole, homogenized rat striatal brain tissue). Type of test: binding. As to the method: Affinity for the dopamine D2 receptor was established by a modification of the standard experimental test procedure of Seemen and Schaus, European Journal of Pharmacology 203: 105-109, 1991, wherein homogenized rat striatal brain tissue is incubated with ^3 H-quinpirole and various concentrations of test compound, filtered and washed and counted in a Betaplate scintillation counter.

The subject of another test is mouse locomotor activity. Kind of test: Reduction of mouse locomotor activity (hypolocomotion). Type of test: in vivo, mouse (male, CF-1). The note with it: 20 min, ip, horizontal activity counts 10 to 20 minutes after dosing. As for the experimental part: The antipsychotic activity of the compounds of the invention was further established by a determination of the compounds' ability to reduce mouse locomotor activity according to the method of Martin and Bendensky, J. Pharmacol. Exp. Therap. 229: 706-711, 1984, in which mice (male, CF-1, Charles River, 20-30 g) were injected with vehicle or various doses of each drug and locomotor activity was measured for 30 minutes using automated infrared activity monitors (Omnitech-8×8 inch open field) located in a darkened room. ED50 's were calculated from the horizontal activity counts collected from 10 to 20 minutes after dosing using a nonlinear regression analysis with inverse prediction.

A further test deals with dopa accumulation. The test is described as follows: Inhibition of dopa accumulation in GBL-treated rats (effect on dopamine synthesis, Walters and Roth). In kind it is in vivo, rat (male, Sprague-Dawley). The note with it: sc, limbic (L) brain tissue, rat, read-out: Dopa Accumulation (% inhib. @ 10 mg/kg, sc). As for the experimental part:
The effect of the compounds of the invention on the synthesis of dopamine was established by the method of Walters and Roth, Naunyn-Schmiedeberg's Arch. Pharmacol. 296:5-14, 1976, in which rats (male, Sprague-Dawley, Charles River, 200-350 g) were administered vehicle or test drug ten minutes prior to the administration of gamma butyrolactone (GBL; 750 mg/kg, ip to inhibit dopaminergic impulse flow) and 20 minutes prior to NSD-1015 (100 mg/kg, ip to prevent the conversion of dopa to dopamine). Thirty minutes after NSD-1015 all rats were decapitated and the nucleus accumbens and the striatum were removed for analysis. Following perchloric acid extraction of the tissue, the extracts were placed over alumina columns to collect and concentrate dopa and other catechols. This eluate was then subjected to HPLC analysis using electrochemical detection to quantify the levels of dopa present. Dopamine autoreceptor agonists, under the conditions used above, inhibit dopa accumulation.

As a reminder, the ED50 is the dose at which the effect has come halfway, by size or by number of responders. A high value points to weaker potency.

Take `O=C1CC2(CCCC2)CC(=O)N1CCCCNCC1COc2ccccc2O1` (single isomer, unassigned; (-)) [(-)-MDL 72832, 8-[4-(1,4-benzodioxan-2-ylmethylamino)butyl]-8-azaspiro[4.5]decane-7,9-dione]: the “binds times as much as the dextrorotary isomer at the 5-HT1A receptor site” value in the test on 5-HT1A receptor is recorded as 32 times.

Consider `O=c1ccoc2cc(OCCCNCC3COc4cc5c(cc4O3)OCO5)ccc12` (stereo not drawn) [Example 1, 7-[3-[[(6,7-Dihydro-1,3-dioxolo[4,5-g][1,4]benzodioxin-6-yl)methyl]amino]propoxy]chromen-4-one], for which, at dopamine D2 receptor, the inhibition at 0.1 µM came to 65%.

In the test on mouse locomotor activity, `O=c1ccoc2cc(OCCCNC[C@H]3COc4cc5c(cc4O3)OCO5)ccc12` [Example 2, (S)-7-[3-[[(6,7-Dihydro-1,3-dioxolo[4,5-g][1,4]benzodioxin-6-yl)methyl]amino]propoxy]chromen-4-one] yielded an ED50 of 2.74 mg/kg. Moreover, the inhibition at 10 mg/kg in the test on dopa accumulation came out at 60.3%. This molecule also registered an inhibition at 0.1 µM at dopamine D2 receptor of 73%.

As for `O=C1CCOc2cc(OCCCNCC3COc4cc5c(cc4O3)OCO5)ccc21` (stereo not drawn) [Example 4, 7-[3-[[(6,7-Dihydro-1,3-dioxolo[4,5-g][1,4]benzodioxin-6-yl)methyl]amino]propoxy]-chroman-4-one], on dopamine D2 receptor, the inhibition at 0.1 µM is 24%.

Turning to `O=c1ccoc2ccc(OCCCNCC3COc4cc5c(cc4O3)OCO5)cc12` (stereo not drawn) [Example 5, 6-[3-[[(6,7-Dihydro-1,3-dioxolo[4,5-g][1,4]benzodioxin-6-yl)methyl]amino]propoxy]-chromen-4-one], on dopamine D2 receptor, the inhibition at 0.1 µM stood at 39%.

On dopamine D2 receptor, `c1cc2c(cc1OCCCNCC1COc3cc4c(cc3O1)OCO4)CCCO2` (stereo not drawn) [Example 6, N-[3-(Chroman-6-yloxy)-propyl]-6,7-dihydro-1,3-dioxolo[4,5-g][1,4]benzodioxin-6-methanamine] displayed an inhibition at 0.1 µM of 23%.

On to `c1cc2c(cc1OCCCNCC1COc3cc4c(cc3O1)OCO4)OCCC2` (stereo not drawn) [Example 7, N-[3-(Chroman-7-yloxy)-propyl]-6,7-dihydro-1,3-dioxolo[4,5-g][1,4]benzodioxin-6-methanamine], for which the inhibition at 0.1 µM on dopamine D2 receptor is 24%.

Regarding `COc1ccc2c(c1)OC(CNCCCOc1ccc3c(=O)ccoc3c1)CO2` (stereo not drawn) [Example 8, 7-[3-[(7-Methoxy-2,3-dihydro-benzo[1,4]dioxin-2-ylmethyl)amino]propoxy]chromen-4-one], on dopamine D2 receptor, the inhibition at 0.1 µM amounted to 49%.

`O=c1ccoc2cc(OCCCNCC3COc4ccc(O)cc4O3)ccc12` (stereo not drawn) [Example 9, 7-[3-[(7-Hydroxy-2,3-dihydro-benzo[1,4]dioxin-2-ylmethyl)amino]propoxy]chromen-4-one] showed an inhibition at 0.1 µM on dopamine D2 receptor of 100%.

On dopamine D2 receptor, `O=C1COc2cc(OCCCNCC3COc4cc5c(cc4O3)OCO5)ccc21` (stereo not drawn) [Example 10, 6-[3-[(6,7-Dihydro-1,3-dioxolo[4,5-g][1,4]benzodioxin-6-ylmethyl)amino]propoxy)-benzofuran-3-one] gave an inhibition at 0.1 µM of 43%.
